Data from patent publication US20230085307A1, “PYRIDAZINONE COMPOUND AND HERBICIDE” (NISSAN CHEMICAL CORPORATION, priority 2019, published 2023).

What was measured:
velvetleaf [1] = experiment: Test Example 4: herbicidal effect by soil treatment (Table 19, symbol M); assay type: in vivo, velvetleaf (Abutilon theophrasti); settings: amount of applied herbicide 320 g/ha
Procedure, shortened: (§1)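 Seeds were sown in sterilized diluvial soil and covered with about 1.5 cm of soil. An emulsion formulation diluted with water to a predetermined herbicide amount was sprayed evenly onto the soil surface. Plants grew in a greenhouse at 25° C. to 30° C., and the effect was scored three weeks after application using criteria from an earlier test.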

chickweed [2] = experiment: Test Example 4: herbicidal effect by soil treatment (Table 19, symbol P); assay type: in vivo, common chickweed (Stellaria media); settings: amount of applied herbicide 320 g/ha
Procedure, shortened: as §1

rice flat sedge = experiment: Test Example 3: herbicidal effect by foliage application, Wagner pot (Table 18, symbol E); assay type: in vivo, rice flat sedge (Cyperus iria); settings: amount of applied herbicide 320 g/ha
Procedure, shortened: (§2)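 Plants were sown in alluvial soil held under 0.1–0.5 cm standing water and grown 14 days in a greenhouse at 25–30 °C. An emulsifiable formulation, water-diluted to the set dose, was then sprayed onto the foliage, and effects were scored three weeks later using previously defined criteria.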

persian speedwell [3] = experiment: Test Example 4: herbicidal effect by soil treatment (Table 19, symbol R); assay type: in vivo, Persian speedwell (Veronica persica); settings: amount of applied herbicide 320 g/ha
Procedure, shortened: as §1

Chinese sprangletop = experiment: Test Example 3: herbicidal effect by foliage application, Wagner pot (Table 18, symbol D); assay type: in vivo, chinese sprangletop (Leptochloa chinensis); settings: amount of applied herbicide 320 g/ha
Procedure, shortened: as §2

wild oat [4] = experiment: Test Example 4: herbicidal effect by soil treatment (Table 19, symbol I); assay type: in vivo, wild oat (Avena fatua); settings: amount of applied herbicide 320 g/ha
Procedure, shortened: as §1

southern crabgrass [5] = experiment: Test Example 4: herbicidal effect by soil treatment (Table 19, symbol F); assay type: in vivo, southern crabgrass (Digitaria ciliaris); settings: amount of applied herbicide 320 g/ha
Procedure, shortened: as §1

barnyard grass [6] = experiment: Test Example 4: herbicidal effect by soil treatment (Table 19, symbol H); assay type: in vivo, barnyard grass (Echinochloa crus-galli); settings: amount of applied herbicide 320 g/ha
Procedure, shortened: as §1

green foxtail [7] = experiment: Test Example 5: herbicidal effect by foliage application, plastic box (Table 20, symbol G); assay type: in vivo, green foxtail (Setaria viridis); settings: foliage application, 320 g/ha, evaluated three weeks after application
Procedure, shortened: (§3)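 Plants sown in sterilized diluvial soil and grown 14 days in a greenhouse at 25° C to 30° C, then sprayed on the foliage with the compound's emulsion diluted in water to a predetermined herbicide amount. Injury to weeds and crops scored three weeks after application on a visual rating scale.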

redroot pigweed [8] = experiment: Test Example 4: herbicidal effect by soil treatment (Table 19, symbol N); assay type: in vivo, redroot pigweed (Amaranthus retroflexus); settings: amount of applied herbicide 320 g/ha
Procedure, shortened: as §1

redroot pigweed [9] = experiment: Test Example 5: herbicidal effect by foliage application, plastic box (Table 20, symbol N); assay type: in vivo, redroot pigweed (Amaranthus retroflexus); settings: foliage application, 320 g/ha, evaluated three weeks after application
Procedure, shortened: as §3

Italian ryegrass [10] = experiment: Test Example 4: herbicidal effect by soil treatment (Table 19, symbol K); assay type: in vivo, Italian ryegrass (Lolium multiflorum); settings: amount of applied herbicide 320 g/ha
Procedure, shortened: as §1

green foxtail [11] = experiment: Test Example 4: herbicidal effect by soil treatment (Table 19, symbol G); assay type: in vivo, green foxtail (Setaria viridis); settings: amount of applied herbicide 320 g/ha
Procedure, shortened: as §1

lambsquarters [12] = experiment: Test Example 5: herbicidal effect by foliage application, plastic box (Table 20, symbol O); assay type: in vivo, lambsquarters (Chenopodium album); settings: foliage application, 320 g/ha, evaluated three weeks after application
Procedure, shortened: as §3

barnyard grass [13] = experiment: Test Example 3: herbicidal effect by foliage application, Wagner pot (Table 18, symbol H); assay type: in vivo, barnyard grass (Echinochloa crus-galli); settings: amount of applied herbicide 320 g/ha
Procedure, shortened: as §2

windgrass [14] = experiment: Test Example 5: herbicidal effect by foliage application, plastic box (Table 20, symbol L); assay type: in vivo, windgrass (Apera spica-venti); settings: foliage application, 320 g/ha, evaluated three weeks after application
Procedure, shortened: as §3

blackgrass [15] = experiment: Test Example 4: herbicidal effect by soil treatment (Table 19, symbol J); assay type: in vivo, blackgrass (Alopecurus myosuroides); settings: amount of applied herbicide 320 g/ha
Procedure, shortened: as §1

barnyard grass [16] = experiment: Test Example 5: herbicidal effect by foliage application, plastic box (Table 20, symbol H); assay type: in vivo, barnyard grass (Echinochloa crus-galli); settings: foliage application, 320 g/ha, evaluated three weeks after application
Procedure, shortened: as §3

Italian ryegrass [17] = experiment: Test Example 5: herbicidal effect by foliage application, plastic box (Table 20, symbol K); assay type: in vivo, Italian ryegrass (Lolium multiflorum); settings: foliage application, 320 g/ha, evaluated three weeks after application
Procedure, shortened: as §3

southern crabgrass [18] = experiment: Test Example 5: herbicidal effect by foliage application, plastic box (Table 20, symbol F); assay type: in vivo, southern crabgrass (Digitaria ciliaris); settings: foliage application, 320 g/ha, evaluated three weeks after application
Procedure, shortened: as §3

wild oat [19] = experiment: Test Example 5: herbicidal effect by foliage application, plastic box (Table 20, symbol I); assay type: in vivo, wild oat (Avena fatua); settings: foliage application, 320 g/ha, evaluated three weeks after application
Procedure, shortened: as §3

persian speedwell [20] = experiment: Test Example 5: herbicidal effect by foliage application, plastic box (Table 20, symbol R); assay type: in vivo, Persian speedwell (Veronica persica); settings: foliage application, 320 g/ha, evaluated three weeks after application
Procedure, shortened: as §3

velvetleaf [21] = experiment: Test Example 5: herbicidal effect by foliage application, plastic box (Table 20, symbol M); assay type: in vivo, velvetleaf (Abutilon theophrasti); settings: foliage application, 320 g/ha, evaluated three weeks after application
Procedure, shortened: as §3

windgrass [22] = experiment: Test Example 4: herbicidal effect by soil treatment (Table 19, symbol L); assay type: in vivo, windgrass (Apera spica-venti); settings: amount of applied herbicide 320 g/ha
Procedure, shortened: as §1

lambsquarters [23] = experiment: Test Example 4: herbicidal effect by soil treatment (Table 19, symbol O); assay type: in vivo, lambsquarters (Chenopodium album); settings: amount of applied herbicide 320 g/ha
Procedure, shortened: as §1

blackgrass [24] = experiment: Test Example 5: herbicidal effect by foliage application, plastic box (Table 20, symbol J); assay type: in vivo, blackgrass (Alopecurus myosuroides); settings: foliage application, 320 g/ha, evaluated three weeks after application
Procedure, shortened: as §3

chickweed [25] = experiment: Test Example 5: herbicidal effect by foliage application, plastic box (Table 20, symbol P); assay type: in vivo, common chickweed (Stellaria media); settings: foliage application, 320 g/ha, evaluated three weeks after application
Procedure, shortened: as §3

Structure (SMILES) | M: velvetleaf, herbicidal effect rating (velvetleaf [1]) | P: chickweed, herbicidal effect rating (chickweed [2]) | herbicidal effect on E: rice flat sedge (rice flat sedge) | R: persian speedwell, herbicidal effect rating (persian speedwell [3]) | herbicidal effect on D: Chinese sprangletop (Chinese sprangletop) | I: wild oat, herbicidal effect rating (wild oat [4]) | F: southern crabgrass, herbicidal effect rating (southern crabgrass [5]) | H: barnyard grass, herbicidal effect rating (barnyard grass [6]) | herbicidal effect on G: green foxtail (criteria 0-5) (green foxtail [7]) | N: redroot pigweed, herbicidal effect rating (redroot pigweed [8]) | herbicidal effect on N: redroot pigweed (criteria 0-5) (redroot pigweed [9]) | K: Italian ryegrass, herbicidal effect rating (Italian ryegrass [10]) | G: green foxtail, herbicidal effect rating (green foxtail [11]) | herbicidal effect on O: lambsquarters (criteria 0-5) (lambsquarters [12]) | herbicidal effect on H: barnyard grass (barnyard grass [13]) | herbicidal effect on L: windgrass (criteria 0-5) (windgrass [14]) | J: blackgrass, herbicidal effect rating (blackgrass [15]) | herbicidal effect on H: barnyard grass (criteria 0-5) (barnyard grass [16]) | herbicidal effect on K: Italian ryegrass (criteria 0-5) (Italian ryegrass [17]) | herbicidal effect on F: southern crabgrass (criteria 0-5) (southern crabgrass [18]) | further results
C#Cc1ccc2sc(-c3ccccc3OC)c(-c3c(O)c(C)nn(C)c3=O)c2c1 [2-187] | 2 (Herbicidal rate of 20% or more and less than 40%) | 3 (Herbicidal rate of 40% or more and less than 70%) | 0 (Herbicidal rate of 5% or less (almost no effect)) | 0 (Herbicidal rate of 5% or less (almost no effect)) | 0 (Herbicidal rate of 5% or less (almost no effect)) | 0 (Herbicidal rate of 5% or less (almost no effect)) | 1 (Herbicidal rate of 5% or more and less than 20%) | 3 (Herbicidal rate of 40% or more and less than 70%) | 3 (Herbicidal rate of 40% or more and less than 70%) | 4 (Herbicidal rate of 70% or more and less than 90%) | 5 (Herbicidal rate of 90% or more (almost completely withered)) | 4 (Herbicidal rate of 70% or more and less than 90%) | 4 (Herbicidal rate of 70% or more and less than 90%) | 4 (Herbicidal rate of 70% or more and less than 90%) | 4 (Herbicidal rate of 70% or more and less than 90%) | 5 (Herbicidal rate of 90% or more (almost completely withered)) | 4 (Herbicidal rate of 70% or more and less than 90%) | 1 (Herbicidal rate of 5% or more and less than 20%) | 4 (Herbicidal rate of 70% or more and less than 90%) | 4 (Herbicidal rate of 70% or more and less than 90%) | herbicidal effect on I: wild oat (criteria 0-5) (wild oat [19]): 0 (Herbicidal rate of 5% or less (almost no effect)); herbicidal effect on R: persian speedwell (criteria 0-5) (persian speedwell [20]): 5 (Herbicidal rate of 90% or more (almost completely withered)); herbicidal effect on M: velvetleaf (criteria 0-5) (velvetleaf [21]): 5 (Herbicidal rate of 90% or more (almost completely withered)); L: windgrass, herbicidal effect rating (windgrass [22]): 5 (Herbicidal rate of 90% or more (almost completely withered)); O: lambsquarters, herbicidal effect rating (lambsquarters [23]): 4 (Herbicidal rate of 70% or more and less than 90%); herbicidal effect on J: blackgrass (criteria 0-5) (blackgrass [24]): 5 (Herbicidal rate of 90% or more (almost completely withered)); herbicidal effect on P: chickweed (criteria 0-5) (chickweed [25]): 5 (Herbicidal rate of 90% or more (almost completely withered))
COc1cc(F)ccc1-c1sc2ccc(C(C)=O)cc2c1-c1c(O)c(C)nn(C)c1=O [2-192] | 0 (Herbicidal rate of 5% or less (almost no effect)) | 0 (Herbicidal rate of 5% or less (almost no effect)) | 2 (Herbicidal rate of 20% or more and less than 40%) | 0 (Herbicidal rate of 5% or less (almost no effect)) | 2 (Herbicidal rate of 20% or more and less than 40%) | 0 (Herbicidal rate of 5% or less (almost no effect)) | 0 (Herbicidal rate of 5% or less (almost no effect)) | 1 (Herbicidal rate of 5% or more and less than 20%) | 4 (Herbicidal rate of 70% or more and less than 90%) | 4 (Herbicidal rate of 70% or more and less than 90%) | 3 (Herbicidal rate of 40% or more and less than 70%) | 0 (Herbicidal rate of 5% or less (almost no effect)) | 3 (Herbicidal rate of 40% or more and less than 70%) | 3 (Herbicidal rate of 40% or more and less than 70%) | 4 (Herbicidal rate of 70% or more and less than 90%) | 0 (Herbicidal rate of 5% or less (almost no effect)) | 0 (Herbicidal rate of 5% or less (almost no effect)) | 2 (Herbicidal rate of 20% or more and less than 40%) | 0 (Herbicidal rate of 5% or less (almost no effect)) | 4 (Herbicidal rate of 70% or more and less than 90%) | herbicidal effect on I: wild oat (criteria 0-5) (wild oat [19]): 0 (Herbicidal rate of 5% or less (almost no effect)); herbicidal effect on R: persian speedwell (criteria 0-5) (persian speedwell [20]): 5 (Herbicidal rate of 90% or more (almost completely withered)); herbicidal effect on M: velvetleaf (criteria 0-5) (velvetleaf [21]): 4 (Herbicidal rate of 70% or more and less than 90%); L: windgrass, herbicidal effect rating (windgrass [22]): 0 (Herbicidal rate of 5% or less (almost no effect)); O: lambsquarters, herbicidal effect rating (lambsquarters [23]): 4 (Herbicidal rate of 70% or more and less than 90%); herbicidal effect on J: blackgrass (criteria 0-5) (blackgrass [24]): 4 (Herbicidal rate of 70% or more and less than 90%); herbicidal effect on P: chickweed (criteria 0-5) (chickweed [25]): 5 (Herbicidal rate of 90% or more (almost completely withered))
CCCC(=O)Oc1c(C)nn(C)c(=O)c1-c1c(-c2ccccc2Cl)sc2ccc(F)cc12 [2-204] | 0 (Herbicidal rate of 5% or less (almost no effect)) | 3 (Herbicidal rate of 40% or more and less than 70%) | 3 (Herbicidal rate of 40% or more and less than 70%) | 3 (Herbicidal rate of 40% or more and less than 70%) | 3 (Herbicidal rate of 40% or more and less than 70%) | 0 (Herbicidal rate of 5% or less (almost no effect)) | 0 (Herbicidal rate of 5% or less (almost no effect)) | 0 (Herbicidal rate of 5% or less (almost no effect)) | 5 (Herbicidal rate of 90% or more (almost completely withered)) | 2 (Herbicidal rate of 20% or more and less than 40%) | 5 (Herbicidal rate of 90% or more (almost completely withered)) | 0 (Herbicidal rate of 5% or less (almost no effect)) | 0 (Herbicidal rate of 5% or less (almost no effect)) | 3 (Herbicidal rate of 40% or more and less than 70%) | 4 (Herbicidal rate of 70% or more and less than 90%) | 3 (Herbicidal rate of 40% or more and less than 70%) | 0 (Herbicidal rate of 5% or less (almost no effect)) | 0 (Herbicidal rate of 5% or less (almost no effect)) | 3 (Herbicidal rate of 40% or more and less than 70%) | 0 (Herbicidal rate of 5% or less (almost no effect)) | herbicidal effect on I: wild oat (criteria 0-5) (wild oat [19]): 3 (Herbicidal rate of 40% or more and less than 70%); herbicidal effect on R: persian speedwell (criteria 0-5) (persian speedwell [20]): 5 (Herbicidal rate of 90% or more (almost completely withered)); herbicidal effect on M: velvetleaf (criteria 0-5) (velvetleaf [21]): 4 (Herbicidal rate of 70% or more and less than 90%); L: windgrass, herbicidal effect rating (windgrass [22]): 0 (Herbicidal rate of 5% or less (almost no effect)); O: lambsquarters, herbicidal effect rating (lambsquarters [23]): 0 (Herbicidal rate of 5% or less (almost no effect)); herbicidal effect on J: blackgrass (criteria 0-5) (blackgrass [24]): 0 (Herbicidal rate of 5% or less (almost no effect)); herbicidal effect on P: chickweed (criteria 0-5) (chickweed [25]): 5 (Herbicidal rate of 90% or more (almost completely withered))
